Patent US7033810B2, “Sitosterolemia susceptibility gene (SSG): compositions and methods of use” (Amgen Inc., priority 2000, dated 2006)

Legend:
GAPDH mRNA = test: Northern blot of GAPDH mRNA in tissues of treated mice; assay type: in vivo, C57BL/6 mouse; settings: liver, intestine and kidney; 0, 1, 5 and 50 mg/kg
Experimental: (§1) Total RNA was prepared from untreated (control) and treated (0, 1, 5 and 50 mg/kg of LXRa agonist Compound A) C57BL/6 mouse liver, intestine and kidney. RNA was electrophoresed on 1.2% agarose/formaldehyde gels, transferred to nylon membrane (Ambion, Bright Star), hybridized to ^32P-labeled murine ABC-1, apolipoprotein AI, and GAPDH cDNA probes, washed and subjected to autoradiography.

ABC1 mRNA = test: Northern blot of ABC1 mRNA in tissues of treated mice; assay type: in vivo, C57BL/6 mouse; settings: 0, 1, 5 and 50 mg/kg
Experimental: as §1

SSG mRNA = test: Northern blot of SSG mRNA in tissues of treated mice; assay type: in vivo, C57BL/6 mouse; settings: 0, 1, 5 and 50 mg/kg
Experimental: as §1, with “SSG” for “ABC-1, apolipoprotein AI, and GAPDH”, “probe,” for “probes,”

Caco-2 cells = test: [3H]-cholesterol efflux from Caco-2 cells; assay type: cell-based, human; settings: 1 μM, 24 h treatment; efflux media with apolipoprotein AI 10 ug/ml; 8 and 24 hour time points
Experimental: Caco2 cells (an adenocarcinoma cell line derived from human colon) were plated in 6 well plates at 50-60% confluence and allowed to adhere overnight in DMEM containing 10% FBS, non-essential amino acids, and Pen/Strep. On the second day, cells were labeled for 24 h with [^3H]-cholesterol (0.5 μCi/ml in DMEM and 1% BSA, Pen/Strep). Cells were washed (2×) with PBS and DMEM (1% BSA) with or without the addition of Compound A (1 μM final concentration). After 24 h treatment, cells were washed (2× with PBS) and efflux media was added containing purified apolipoprotein AI (10 ug/ml). Cells and media were harvested at 8 and 24 hour time points. Cells were washed 3× with PBS, and lysed with 300 μl of 0.5 M NaOH. Radioactivity in media and cell lysates were scintillation counted and normalized to cell protein (using BioRad Lowry Kit). Efflux data shown in is presented as CPM (media)/mg cell protein (FIG. 4).

apolipoprotein AI mRNA = test: Northern blot of apolipoprotein AI mRNA in tissues of treated mice; assay type: in vivo, C57BL/6 mouse; settings: liver, intestine and kidney; 0, 1, 5 and 50 mg/kg
Experimental: as §1

[1] = tested on: EST clone AA237916 (murine SSG); test: GEM analysis, EST clone AA237916; assay type: in vivo, C57BL/6 mouse
Experimental: Total RNA was prepared from untreated (control) and treated (50 mg/kg of LXRα agonist Compound A) C57BL/6 mouse liver, intestine and kidney. Control and treated RNA samples were used to generate separate pools of unique, fluorescently labeled cDNA probes (performed at Incyte Genomics Inc.). Each (two fluorescent probe) tissue sample was simultaneously applied to a single Incyte Mouse GEM™ 1 microarray where they were competitively reacted with the arrayed cDNA molecules (containing 8,734 cDNA elements). The intensity of the fluorescence at each array element is proportional to the expression level of that particular gene in the sample. Each element of the GEM™ microarray was scanned for the first fluorescent color, and then repeated for the second fluorescent label. The ratio of the two fluorescent intensities provided a quantitative measurement of the relative gene expression level in the two samples. […] A portion of that composite is shown in Table 2, which lists genes having the highest relative expression levels in the treated intestine and their corresponding relative expression levels in liver and kidney. […] One EST in particular, corresponding to Accession Number AA237916, and shown in the first row of Table 2, was selected for further analysis, in part based on its similarity to the Drosophila Brown protein, a member of the ABC superfamily. […]

human ABC1 = test: Northern blot, ABC1 expression in Caco-2 cells; assay type: cell-based; settings: Human Caco-2 cells
Experimental: (§2) Human Caco-2 cells were treated with Compounds B and C. Northern blot analysis was performed (essentially as described above) using human ABC1 and ABC8 cDNA probes.

human ABC8 = test: Northern blot, ABC8 expression in Caco-2 cells; assay type: cell-based; settings: Human Caco-2 cells
Experimental: as §2

| SMILES | GAPDH mRNA levels (GAPDH mRNA) | ABC1 mRNA (ABC1 mRNA; intestine) | ABC1 mRNA (ABC1 mRNA; kidney) | ABC1 mRNA (ABC1 mRNA; liver) | SSG expression (mRNA, Northern blot) (SSG mRNA; intestine) | SSG expression (mRNA, Northern blot) (SSG mRNA; liver) | cholesterol efflux (Caco-2 cells) | apolipoprotein AI mRNA levels (apolipoprotein AI mRNA) | induction of EST clone AA237916 (murine SSG) ([1]; intestine of treated mice) | induction of EST clone AA237916 (murine SSG) ([1]; liver of treated mice) | human ABC1 expression (Northern blot) (human ABC1) | human ABC8 expression (Northern blot) (human ABC8) |
| --- | --- | --- | --- | --- | --- | --- | --- | --- | --- | --- | --- | --- |
| O=S(=O)(c1ccccc1)N(CC(F)(F)F)c1ccc(C(O)(C(F)(F)F)C(F)(F)F)cc1 [Compound A] | no measurable difference | Dose dependent increases | Dose dependent increases | Dose dependent increases | induced | induced | Stimulates Cholesterol Efflux | no measurable difference | 2.5 fold | 2.4 fold |  |  |
| CN(c1ccc(C(O)(C(F)(F)F)C(F)(F)F)cc1)S(=O)(=O)c1ccccc1 [B] |  |  |  |  |  |  |  |  |  |  | induced | induced |
| CC(c1ccco1)N(C(=O)C12CC3CC(CC(C3)C1)C2)c1ccccn1 (centres unmarked) [C] |  |  |  |  |  |  |  |  |  |  | induced | induced |
